Source: US20120255051A1, “HERBICIDE TOLERANT PLANTS” (priority 2009, published 2012)

System: Brassica plants comprising mutant AHAS alleles
Experiment: Field trial, pre-planting treatment (0, 10, 20, 30 g a.i./ha), two locations in Canada: ERG, EST1, EST2, PPTOX, VIG1, VIG2, VIG3 scores
Assay type: in vivo, Brassica napus
Source text: Tests were set up and conducted to asses the growth and performance of plants comprising AHAS full knock-out alleles, and to further analyze the correlation between the presence of full knockout and missense AHAS genes in Brassica plants and plant growth and herbicide tolerance of the Brassica plants in the field. To this end, the Brassica plants identified in Example 1 and 2 were backcrossed two times with an elite parent line, and subsequently selfed twice to obtain homozygous plants (BC2S2). Plants were grown as row plots in a split plot design with three replicates (main plots=herbicide treatments, subplots=genotypes) at two locations in Canada. Treatment pre-planting was carried out on the soil about two days before sowing with a dose of 0 (treatment A), 10 (treatment B), 20 (treatment C) or 30 (treatment D) g a.i./ha of thiencarbazone methyl. Herbicide tolerance was measured by scoring for different parameters. The parameter emergence (ERG) was scored at the cotyledon stage on a scale 1-9, where 1 means late emergence and 9 means early emergence. Establishment was scored 14 days after sowing (EST1) and 21 days after sowing (EST2). Scores were from 1 to 9, where 1 is the worst establishment (least plants that emerged), and 9 is the best establishment (most plants emerged). Phytotoxicity (PPTOX) was determined after establishment. Plants were evaluated on a scale of 1 to 9, where 1=completely yellowing, 5=50% of plant is yellow and 9=no yellowing. The vigor scores (see above) were determined at 1-2 leaf stage (VIG1), 7 days after VIG1 (VIG2) and 14 days after VIG1 (VIG3). The average values (Av) and standard deviations (SD) of the scores for the different parameters are represented in Table 7a-g.
Further, the contribution of the knock-out allele to herbicide tolerance conferred by the missense allele was calculated. First, the scores were corrected for a possible effect of the growth per se, independent of herbicide treatment. To this end, the scores for treatments B, C and D were divided by the scores for treatment A for the same genotype and for the same parameter (corrected herbicide tolerance scores). Next, the effect of the knock-out allele to these corrected herbicide tolerance scores obtained by the missense allele was calculated. Therefore, the corrected herbicide tolerance scores for the missense—knock-out allele combination was divided by the corrected herbicide tolerance scores for the missense allele—wild-type combination. In case the knock-out allele has no effect on herbicide tolerance conferred by the missense allele, this ratio should be 1. In case the knock-out allele positively contributes to the herbicide tolerance conferred by the missense allele, this ratio should be higher than 1. The results for the contribution of the knock-out allele to herbicide tolerance conferred by the missense allele as calculated above are shown in table 8.

[1] = AHAS1 HETO112, AHAS3 WT, treatment C 20 g a.i./ha pre-planting, Location A
[2] = AHAS1 HETO112, AHAS3 WT, treatment C 20 g a.i./ha pre-planting, Location B
[3] = AHAS1 HETO112, AHAS3 WT, treatment D 30 g a.i./ha pre-planting, Location A
[4] = AHAS1 HETO112, AHAS3 WT, treatment D 30 g a.i./ha pre-planting, Location B
[5] = AHAS1 HETO112/AHAS3 HETO111, 10 g a.i./ha pre-planting (B), Location A
[6] = AHAS1 HETO112/AHAS3 HETO111, 10 g a.i./ha pre-planting (B), Location B
[7] = AHAS1 HETO112/AHAS3 HETO111, 20 g a.i./ha pre-planting (C), Location A
[8] = AHAS1 HETO112/AHAS3 HETO111, 20 g a.i./ha pre-planting (C), Location B
[9] = AHAS1 HETO112/AHAS3 HETO111, 30 g a.i./ha pre-planting (D), Location A
[10] = AHAS1 HETO112/AHAS3 HETO111, 30 g a.i./ha pre-planting (D), Location B
[11] = AHAS1 HETO112/AHAS3 WT, 10 g a.i./ha pre-planting (B), Location A
[12] = AHAS1 HETO112/AHAS3 WT, 10 g a.i./ha pre-planting (B), Location B
[13] = AHAS1 HETO112/AHAS3 WT, 20 g a.i./ha pre-planting (C), Location A
[14] = AHAS1 HETO112/AHAS3 WT, 20 g a.i./ha pre-planting (C), Location B
[15] = AHAS1 HETO112/AHAS3 WT, 30 g a.i./ha pre-planting (D), Location A
[16] = AHAS1 HETO112/AHAS3 WT, 30 g a.i./ha pre-planting (D), Location B
[17] = AHAS1 WT, AHAS3 HETO104, treatment B 10 g a.i./ha pre-planting, Location A
[18] = AHAS1 WT, AHAS3 HETO104, treatment B 10 g a.i./ha pre-planting, Location B
[19] = AHAS1 WT, AHAS3 HETO104, treatment C 20 g a.i./ha pre-planting, Location A
[20] = AHAS1 WT, AHAS3 HETO104, treatment C 20 g a.i./ha pre-planting, Location B
[21] = AHAS1 WT, AHAS3 HETO104, treatment D 30 g a.i./ha pre-planting, Location A
[22] = AHAS1 WT, AHAS3 HETO104, treatment D 30 g a.i./ha pre-planting, Location B

COC(=O)c1csc(C)c1S(=O)(=O)NC(=O)n1nc(OC)n(C)c1=O [thiencarbazone-methyl, methyl 4-[(4,5-dihydro-3-methoxy-4-methyl-5-oxo-1H-1,2,4-triazol-1-yl)carbonylsulfamoyl]-5-methylthiophene-3-carboxylate]
6.33: vigor1 (VIG1) score, Av [5] | vigor2 (VIG2) score, Av [7]
4.00: vigor1 (VIG1) score, Av [10]
1.33: establishment (EST1) score Av, 14 days after sowing [2] | vigor1 (VIG1) score, Av [12] | emergence (ERG) score Av [20]
3.67: establishment (EST2) score, Av [10]
6.67: vigor2 (VIG2) score, Av [6] | vigor2 (VIG2) score, Av [9]
3.33: establishment (EST1) score Av, 14 days after sowing [18]
1.00: emergence (ERG) score Av [1] | establishment (EST1) score Av, 14 days after sowing [1] | emergence (ERG) score Av [2] | emergence (ERG) score Av [3] | establishment (EST1) score Av, 14 days after sowing [3] | emergence (ERG) score Av [4] | establishment (EST1) score Av, 14 days after sowing [4] | phytotoxicity (PPTOX) score, Av [11] | vigor1 (VIG1) score, Av [11] | vigor2 (VIG2) score, Av [11] | phytotoxicity (PPTOX) score, Av [12] | vigor2 (VIG2) score, Av [12] | establishment (EST2) score, Av [13] | phytotoxicity (PPTOX) score, Av [13] | vigor1 (VIG1) score, Av [13] | vigor2 (VIG2) score, Av [13] | phytotoxicity (PPTOX) score, Av [14] | vigor1 (VIG1) score, Av [14] | vigor2 (VIG2) score, Av [14] | establishment (EST2) score, Av [15] | phytotoxicity (PPTOX) score, Av [15] | vigor1 (VIG1) score, Av [15] | vigor2 (VIG2) score, Av [15] | establishment (EST2) score, Av [16] | phytotoxicity (PPTOX) score, Av [16] | vigor1 (VIG1) score, Av [16] | vigor2 (VIG2) score, Av [16] | emergence (ERG) score Av [19] | establishment (EST1) score Av, 14 days after sowing [19] | emergence (ERG) score Av [21] | establishment (EST1) score Av, 14 days after sowing [21] | emergence (ERG) score Av [22] | establishment (EST1) score Av, 14 days after sowing [22]
2.33: establishment (EST1) score Av, 14 days after sowing (AHAS1 HETO112, AHAS3 WT, treatment B 10 g a.i./ha pre-planting, Location B) | establishment (EST1) score Av, 14 days after sowing [17] | establishment (EST1) score Av, 14 days after sowing [20]
1.67: establishment (EST2) score, Av [11] | establishment (EST2) score, Av [14]
5.67: establishment (EST2) score, Av [5] | establishment (EST2) score, Av [6] | establishment (EST2) score, Av [9]
5.33: establishment (EST2) score, Av [7] | vigor2 (VIG2) score, Av [8] | vigor2 (VIG2) score, Av [10] | emergence (ERG) score Av (AHAS1 WT, AHAS3 HETO111 (HETO108+HETO111 series), treatment B 10 g a.i./ha pre-planting, Location A)
2.67: establishment (EST2) score, Av [12]
7.33: vigor2 (VIG2) score, Av [5]
2.00: emergence (ERG) score Av [17] | emergence (ERG) score Av [18]
5.00: establishment (EST2) score, Av [8]
